Data as given in ChEMBL document CHEMBL1134915, “Acyl dipeptides as reversible caspase inhibitors. Part 2: further optimization” (Bioorg Med Chem Lett, 2002).

Assays:
[1] = molecular target: T1, Caspase-6 (Homo sapiens, UniProt P55212); test: Inhibition of Caspase-6
T1 sequence (P55212 whole entry): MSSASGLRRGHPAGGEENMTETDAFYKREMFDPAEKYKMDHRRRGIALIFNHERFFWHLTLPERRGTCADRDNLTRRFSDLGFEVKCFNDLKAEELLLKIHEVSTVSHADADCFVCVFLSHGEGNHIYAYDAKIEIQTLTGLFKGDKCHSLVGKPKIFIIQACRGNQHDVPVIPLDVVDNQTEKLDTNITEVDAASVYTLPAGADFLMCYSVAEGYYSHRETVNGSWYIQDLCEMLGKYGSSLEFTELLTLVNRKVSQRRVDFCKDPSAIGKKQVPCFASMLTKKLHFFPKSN

[2] = molecular target: T2, Caspase-3 (Homo sapiens, UniProt P42574); test: Inhibition of Caspase-3
T2 sequence (P42574 whole entry): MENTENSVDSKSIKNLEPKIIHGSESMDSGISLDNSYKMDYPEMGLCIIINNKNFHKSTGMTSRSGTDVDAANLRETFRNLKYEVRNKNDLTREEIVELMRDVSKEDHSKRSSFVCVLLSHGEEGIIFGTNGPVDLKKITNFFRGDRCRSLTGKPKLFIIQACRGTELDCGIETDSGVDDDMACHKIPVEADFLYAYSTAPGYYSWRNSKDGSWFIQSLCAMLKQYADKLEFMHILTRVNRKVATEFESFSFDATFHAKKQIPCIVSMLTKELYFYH

[3] = molecular target: T3, Caspase-8 (Homo sapiens, UniProt Q14790); test: Inhibition of Caspase-8 enzyme
T3 sequence (Q14790 217-374 limits assumed): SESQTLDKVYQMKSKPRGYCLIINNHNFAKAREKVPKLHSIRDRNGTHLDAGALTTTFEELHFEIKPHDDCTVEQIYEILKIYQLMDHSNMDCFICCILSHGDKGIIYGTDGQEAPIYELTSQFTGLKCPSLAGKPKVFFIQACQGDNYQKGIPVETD
T3 sequence (Q14790 385-479 limits assumed): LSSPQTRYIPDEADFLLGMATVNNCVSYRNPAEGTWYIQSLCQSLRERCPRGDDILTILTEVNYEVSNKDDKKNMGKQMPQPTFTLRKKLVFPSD

[4] = molecular target: T4, Caspase-7 (Homo sapiens, UniProt P55210); test: Inhibition of Caspase-7 enzyme
T4 sequence (P55210 whole entry): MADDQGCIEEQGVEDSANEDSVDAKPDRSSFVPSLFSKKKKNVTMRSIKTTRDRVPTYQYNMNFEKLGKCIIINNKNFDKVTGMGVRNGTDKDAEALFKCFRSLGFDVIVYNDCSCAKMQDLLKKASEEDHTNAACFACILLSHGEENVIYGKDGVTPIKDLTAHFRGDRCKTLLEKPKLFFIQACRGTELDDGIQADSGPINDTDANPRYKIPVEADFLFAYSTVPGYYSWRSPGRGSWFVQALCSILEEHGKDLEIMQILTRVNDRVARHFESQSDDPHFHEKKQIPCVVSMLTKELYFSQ

[5] = molecular target: T5, Caspase-1 (Homo sapiens, UniProt P29466); test: Inhibition of Caspase-1 enzyme
T5 sequence (P29466 whole entry): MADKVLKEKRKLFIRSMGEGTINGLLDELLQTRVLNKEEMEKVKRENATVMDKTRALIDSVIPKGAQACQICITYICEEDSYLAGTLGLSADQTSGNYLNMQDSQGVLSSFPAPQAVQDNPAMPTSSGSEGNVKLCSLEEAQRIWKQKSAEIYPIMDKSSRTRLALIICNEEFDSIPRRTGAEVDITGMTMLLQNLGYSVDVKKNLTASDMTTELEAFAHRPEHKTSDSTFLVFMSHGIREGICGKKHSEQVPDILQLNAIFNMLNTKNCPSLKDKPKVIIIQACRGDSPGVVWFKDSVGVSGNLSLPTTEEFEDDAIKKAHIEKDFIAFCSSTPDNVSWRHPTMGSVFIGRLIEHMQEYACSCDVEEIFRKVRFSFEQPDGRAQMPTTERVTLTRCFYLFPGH

[6] = molecular target: T5, Caspase-1; test: Inhibitory concentration of compound required against Caspase-1 enzyme compared to acylated dipeptides
[7] = molecular target: T1, Caspase-6; test: Inhibitory concentration of compound required against Caspase-6 enzyme compared to acylated dipeptides
[8] = molecular target: T4, Caspase-7; test: Inhibitory concentration of compound required against Caspase-7 enzyme compared to acylated dipeptides
[9] = molecular target: T3, Caspase-8; test: Inhibitory concentration of compound required against Caspase-8 enzyme compared to acylated dipeptides
[10] = molecular target: T2, Caspase-3; test: Inhibitory concentration of compound required against Caspase-3 enzyme compared to acylated dipeptides

Compound	IC50 [1] [nM]	IC50 [2] [nM]	IC50 [3] [nM]	IC50 [4] [nM]	IC50 [5] [nM]	IC50 [6] [nM]	IC50 [7] [nM]	IC50 [8] [nM]	IC50 [9] [nM]	IC50 [10] [nM]
CC(C)C(NC(=O)CCOc1cccc2ccccc12)C(=O)N[C@H]1CC(=O)OC1O (some centres not stated)	4600	4400	19600	37000	250					
CC(C)CC(NC(=O)[C@@H](CCC(=O)O)Oc1cccc2ccccc12)C(=O)N[C@H]1CC(=O)OC1O (some centres not stated)	15	21	12	587						
CC(C)C(NC(=O)COc1c(C(=O)O)ccc2ccccc12)C(=O)N[C@H]1CC(=O)OC1O (some centres not stated)	1430	54	48	1650	385					
CC(C)CC(NC(=O)[C@H](CCC(=O)O)Oc1cccc2ccccc12)C(=O)N[C@H]1CC(=O)OC1O (some centres not stated)	3.5	3.8	31	130						
CC(C)C(NC(=O)COc1ccc2ccccc2c1C(=O)O)C(=O)N[C@H]1CC(=O)OC1O (some centres not stated)	3610	401	733	10900	2960					
CC(C)C(NC(=O)COc1cc2ccccc2cc1NS(=O)(=O)C(F)(F)F)C(=O)N[C@H]1CC(=O)OC1O (some centres not stated)	3030	1920	1420	43700	2180					
CC(C)C(NC(=O)COc1cc2ccccc2cc1C(=O)O)C(=O)N[C@H]1CC(=O)OC1O (some centres not stated)	1900	731	200	17000	1890					
CC(C)C(NC(=O)COc1cccc2c(NS(=O)(=O)C(F)(F)F)cccc12)C(=O)N[C@H]1CC(=O)OC1O (some centres not stated)	1010	207	615	11000	127					
CC(C)C(NC(=O)COc1cccc2ccccc12)C(=O)N[C@H]1CC(=O)OC1O (some centres not stated)	> 10000	355	1200	2100	336					
CC(=O)N[C@@H](CC(=O)O)C(=O)N[C@@H](CCC(=O)O)C(=O)N[C@H](C(=O)N[C@H]1CC(=O)OC1O)C(C)C (some centres not stated)						50	10	10	80	3.5

Next, values leading:

IC50 [1] [nM]	IC50 [2] [nM]	IC50 [3] [nM]	IC50 [4] [nM]	IC50 [5] [nM]	IC50 [6] [nM]	IC50 [7] [nM]	IC50 [8] [nM]	IC50 [9] [nM]	IC50 [10] [nM]	Compound
308	230	670	2670	330						CC(C)CC(NC(=O)CNc1cccc(Oc2ccccc2)c1)C(=O)N[C@H]1CC(=O)OC1O (some centres not stated)
37	13	7.6	1320	33						CC(C)CC(NC(=O)CNc1cccc2ccccc12)C(=O)N[C@H]1CC(=O)OC1O (some centres not stated)
7000	1550	450	6140	15						CC(C)C(NC(=O)CNc1cccc2ccccc12)C(=O)N[C@H]1CC(=O)OC1O (some centres not stated)
589	320	990	2920	790						CC(C)CC(NC(=O)CNCC(Cc1ccccc1)c1ccccc1)C(=O)N[C@H]1CC(=O)OC1O (some centres not stated)
310	512	17	7240							CC(C)C[C@H](NC(=O)C(C)Nc1cccc2ccccc12)C(=O)N[C@H]1CC(=O)OC1O (some centres not stated)
